PubChem BioAssay (NCI)
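96-well plates; 48 h exposure; 5 concentrations. Endpoints by linear interpolation between flanking doses. Not reached: highest tested concentration assigned. Abbreviation: GI50, concentration required for 50% inhibition of growth. TGI is the concentration that stops growth completely.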

How the values were obtained:
Experiment in all cases: DTP human tumour cell line panel, 48 h
[1] = test system: NCI-H226 lung
[2] = test system: NCI-H23 lung
[3] = test system: NCI-H460 lung
[4] = test system: NCI-H522 lung
[5] = test system: NCI/ADR-RES ovarian
[6] = test system: OVCAR-3 ovarian
[7] = test system: OVCAR-4 ovarian
[8] = test system: OVCAR-5 ovarian
[9] = test system: OVCAR-8 ovarian
[10] = test system: PC-3 prostate
[11] = test system: RPMI-8226 leukemia
[12] = test system: RXF 393 renal
[13] = test system: SF-268 CNS
[14] = test system: SF-295 CNS
[15] = test system: SF-539 CNS
[16] = test system: SK-MEL-2 melanoma
[17] = test system: SK-MEL-5 melanoma
[18] = test system: SK-OV-3 ovarian
[19] = test system: SN12C renal
[20] = test system: SNB-19 CNS
[21] = test system: SNB-75 CNS
[22] = test system: SR leukemia
[23] = test system: SW-620 colon
[24] = test system: T-47D breast
[25] = test system: TK-10 renal
[26] = test system: U251 CNS
[27] = test system: UACC-257 melanoma
[28] = test system: UACC-62 melanoma
[29] = test system: UO-31 renal

## COc1cc(-c2nccn2-c2ccc3ccccc3c2)cc(OC)c1OC
[1]
  TGI: 20.3 µM
[2]
  GI50: 0.0789 µM
  TGI: 5.53 µM
[3]
  GI50: < 0.0215 µM
  TGI: 11.7 µM
[4]
  GI50: < 0.0218 µM
  TGI: 20.4 µM
[5]
  TGI: 0.0273 µM
[6]
  GI50: < 0.0176 µM
  TGI: 1.61 µM
[7]
  GI50: 2.04 µM
  TGI: 44.6 µM
[8]
  GI50: 0.469 µM
  TGI: 24.2 µM
[9]
  GI50: 0.489 µM
  TGI: > 88 µM
[10]
  GI50: 0.0453 µM
  TGI: > 100 µM
[11]
  GI50: 0.19 µM
  TGI: 17.5 µM
[12]
  GI50: 0.254 µM
  TGI: 28.7 µM
[13]
  GI50: 0.335 µM
  TGI: 18.9 µM
[14]
  GI50: < 0.0159 µM
  TGI: 15.5 µM
[15]
  GI50: 0.0466 µM
  TGI: 0.625 µM
[16]
  GI50: 6.2 µM
  TGI: > 50.3 µM
[17]
  GI50: < 0.0195 µM
  TGI: 4.45 µM
[18]
  GI50: 0.99 µM
  TGI: 74 µM
[19]
  GI50: 0.666 µM
  TGI: 22.6 µM
[20]
  GI50: 0.0985 µM
  TGI: 24.3 µM
[21]
  GI50: 0.0605 µM
  TGI: 24.8 µM
[22]
  GI50: < 0.0147 µM
  TGI: 7.06 µM
[23]
  GI50: 0.024 µM
  TGI: 25.2 µM
[24]
  GI50: 17.7 µM
  TGI: 94.8 µM
[25]
  GI50: 2.94 µM
  TGI: > 87.6 µM
[26]
  GI50: 0.0547 µM
  TGI: 16.7 µM
[27]
  GI50: 12.9 µM
  TGI: 41.3 µM
[28]
  GI50: < 0.0177 µM
  TGI: 14.5 µM
[29]
  GI50: 1.65 µM
  TGI: > 62.6 µM
